# Earlier results as cited in US9125411B2, “UV absorbers for reducing the E/Z isomerization of pesticides” (BASF SE, priority 2010, dated 2015).
substance,measurement,setting,value
metaflumizone,pesticidal activity of the E isomer relative to the Z isomer,E isomer higher than Z isomer,up to 10 fold
same,change of activity by irradiation by light,"Takagi et al., Veterinary Parasitology, 2007",loses activity
